Key:
[1] = test system: BaF3; experiment: Antiproliferative activity against mouse BaF3 cells expressing FGFR2 incubated for 72 hrs by CCK-8 assay; type: functional, cell-based; conditions: BaF3, 72 h
[2] = test system: BaF3; experiment: Antiproliferative activity against mouse BaF3 cells expressing FGFR1 incubated for 72 hrs by CCK-8 assay; type: functional, cell-based; conditions: BaF3, 72 h
[3] = test system: BaF3; experiment: Antiproliferative activity against mouse BaF3 cells incubated for 72 hrs by CCK-8 assay; conditions: BaF3, 72 h
[4] = Selectivity ratio of IC50 for antiproliferative activity against mouse BaF3 cells expressing FGFR1 to IC50 for antiproliferative activity against mouse BaF3 cells expressing FGFR2; type: functional
[5] = Antiproliferative activity against FGFR2 amplified human SNU-16 cells measured after 72 hrs by CCK-8 assay; type: functional, cell-based; conditions: SNU-16, 72 h
[6] = Antiproliferative activity against FGFR2 amplified human KATO III stomach cancer cell line measured after 72 hrs by CCK-8 assay; type: functional, cell-based
[7] = test system: A204; experiment: Antiproliferative activity against FGFR1 amplified human A204 cells measured after 72 hrs by CCK-8 assay; type: functional, cell-based; conditions: A204, 72 h
[8] = Antiproliferative activity against human RT-112 cells harboring FGFR3-TACC3 measured after 72 hrs by CCK-8 assay; type: functional, cell-based; conditions: RT-112, 72 h
[9] = test system: MDA-MB-453; experiment: Antiproliferative activity against human MDA-MB-453 cells harboring FGFR4-Y367C measured after 72 hrs by CCK-8 assay; type: functional, cell-based; conditions: MDA-MB-453, 72 h

Structure (SMILES)	IC50 [1] [nM]	IC50 [2] [nM]	IC50 [3] [nM]	IC50 [9] [µM]	Ratio IC50 [4]	IC50 [5] [nM]	IC50 [6] [nM]	IC50 [7] [µM]	IC50 [8] [µM]
C=C(C)C(=O)Nc1ccc(-c2c(-c3ccc(S4(=O)=NCCCCC4)cc3)c3c(N)ncnc3n2C)cc1F (stereo unspecified)	106	> 1000	> 1000	–	–	–	–	–	–
C=CC(=O)Nc1ccc(-c2c(-c3ccc(S4(=O)=NCCCCC4)cc3)c3c(N)ncnc3n2C)cc1 (stereo unspecified)	1.1	307	> 1000	–	>279	–	–	–	–
CCC(=O)Nc1ccc(-c2c(-c3ccc(S4(=O)=NCCCCC4)cc3)c3c(N)ncnc3n2C)c(F)c1 (stereo unspecified)	> 1000	> 1000	> 1000	4.17	–	1280	2210	> 10	> 10
C=CC(=O)Nc1ccc(-c2c(-c3ccc(S4(=O)=NCCCC4)cc3)c3c(N)ncnc3n2C)cc1 (stereo unspecified)	12.1	> 1000	> 1000	–	–	–	–	–	–
C=CC(=O)Nc1ccc(-c2c(-c3ccc(S(=N)(=O)C4CCCCCC4)cc3)c3c(N)ncnc3n2C)cc1 (stereo unspecified)	3.7	336	> 1000	–	–	–	–	–	–
C=CC(=O)Nc1ccc(-c2c(-c3ccc(S4(=O)=NCCOCC4)cc3)c3c(N)ncnc3n2C)cc1 (stereo unspecified)	310	> 1000	> 1000	–	–	–	–	–	–
C=CC(=O)Nc1ccc(-c2c(-c3ccc(S4(=O)=NCCCCC45CCC5)cc3)c3c(N)ncnc3n2C)cc1 (stereo unspecified)	1.5	176	> 1000	–	–	–	–	–	–

The next lines start with results.

IC50 [1] [nM]	IC50 [2] [nM]	IC50 [3] [nM]	IC50 [9] [µM]	Structure (SMILES)	Ratio IC50 [4]	IC50 [5] [nM]	IC50 [6] [nM]	IC50 [7] [µM]	IC50 [8] [µM]
101	> 1000	> 1000	–	C=CC(=O)Nc1ccc(-c2c(-c3ccc(S(=O)(CC)=NC)cc3)c3c(N)ncnc3n2C)cc1 (stereo unspecified)	–	–	–	–	–
8.9	787	> 1000	–	C=CC(=O)Nc1ccc(-c2c(-c3ccc(S(=N)(=O)C4CCCCC4)cc3)c3c(N)ncnc3n2C)cc1 (stereo unspecified)	–	–	–	–	–
320	> 1000	> 1000	–	C=CC(=O)Nc1ccc(-c2c(-c3ccc(S(=N)(=O)CC)cc3)c3c(N)ncnc3n2C)cc1 (stereo unspecified)	–	–	–	–	–
35.5	> 1000	> 1000	–	C=CC(=O)Nc1ccc(-c2c(-c3ccc(S(=O)(CCC)=NC)cc3)c3c(N)ncnc3n2C)cc1 (stereo unspecified)	–	–	–	–	–
914	> 1000	> 1000	–	C=CC(=O)Nc1ccc(-c2c(-c3ccc(S(C)(=N)=O)cc3)c3c(N)ncnc3n2C)cc1 (stereo unspecified)	–	–	–	–	–
108	> 1000	> 1000	–	C=CC(=O)Nc1ccc(-c2c(-c3ccc(S(C)(=O)=NC4CC4)cc3)c3c(N)ncnc3n2C)cc1 (stereo unspecified)	–	–	–	–	–
8.7	441	> 1000	–	C=CC(=O)Nc1ccc(-c2c(-c3ccc(S(=N)(=O)c4ccccc4)cc3)c3c(N)ncnc3n2C)cc1 (stereo unspecified)	–	–	–	–	–
90.1	841	> 1000	–	C=CC(=O)Nc1ccc(-c2c(-c3ccc(S(C)(=O)=NCCC)cc3)c3c(N)ncnc3n2C)cc1 (stereo unspecified)	–	–	–	–	–

Source: ChEMBL document CHEMBL6114968, “Discovery of BW710 as a potent, selective and orally bioavailable fibroblast growth factor receptor 2 (FGFR2) inhibitor” (Eur J Med Chem, 2025)
